In PubChem BioAssay AID2060909 (Molecular Pharmacology Branch, DTP, NCI, 2025) one finds viability, T/C and IC50 data, which are given here for seven compounds.

pIC50: −log10 of the molar value. Several values for one entry are separate records, joined by “and”; a condition that tells them apart may be missing. Equal entries are not always repeated. Some results are limits rather than exact numbers.

This assay concerns 362531-283-R-J2-PDC complex spheroid viability. Kind of assay: Anticancer human tumor 362531-283-R-J2-PDC patient-derived colon adenocarcinoma cell line growth inhibition [RAS]. To be noted: for viability, T/C: stronger effect = lower value. From the text:
RAS pathway inhibitors in Combinations in Complex Spheroids
A high-throughput screen of multi-cell type tumor spheroids was designed to identify active combinations of RAS pathway inhibitors and targeted small molecules. Complex spheroids include a stromal component modeled by human endothelial cells (HUVEC) and fibroblasts modeled by human mesenchymal stem cells (MSCs). The concentration ranges selected for each drug and investigational agent were based upon clinically achievable concentrations if the clinical Cmax of the agent was known.
Compounds. The drugs and investigational agents: abemaciclib (NSC768073), cobimetinib (NSC768068), divarasib (GDC6063, NSC841802), docetaxel (NSC628503), GDC-1971 (RLY-1971, NSC841576), gemcitabine (NSC613327), inavolisib (NSC800729), ipatasertib (NSC767898), KB-0742 (NSC834161), MRTX-1133 (NSC836407), osimertinib (NSC779217), RMC-4630 (NSC839698), RMC-6236 (NSC851965), RMC-6291 (NSC852671), Ro-3306 (NSC812927), sapanisertib (NSC764658), SN-38 (NSC673596), staurosporine (NSC755774), SY5609 (NSC837396), and tovorafenib (DAY101, NSC766906), were obtained from the National Cancer Institute (NCI) Developmental Therapeutics Program Chemical Repository. The FDA-approved anticancer drug set is available from the NCI Developmental Therapeutics Program. […] The stock solutions were prepared in dimethyl sulfoxide (DMSO, Sigma-Aldrich, St. Louis, MO, cat. D2650) at 800-fold the tested concentration and stored at -70 degrees C prior to their use. All drugs and investigational agents were tested over a range starting from a high concentration at or near the clinical Cmax and decreasing in half-log increments. If the clinical Cmax for an agent had not been determined, the highest concentration tested was 10 microM.
Cell Culture. All cells were maintained in an incubator at 37 degrees C and 5% CO2 with 95% humidity. The PDC lines were cultured according to standard operating procedures established by the NCI PDMR. All PDCs were thawed and cultured in Matrigel-coated flasks prepared with a working solution of 1X Ham's F-12 nutrient mix, without supplementation (Invitrogen, Waltham, MA, cat. 11765054), 100 U/mL penicillin-streptomycin (Invitrogen, cat. 15140122), and 2.5% Matrigel (Corning Inc., Corning, NY, cat. 354248) for the first three passages. The 362531-283-R-J2-PDC and 782815-120-R-J1-PDC lines were cultured in 6C/Colon 1B media, which includes advanced DMEM/F-12 (Thermo Fisher Scientific, cat. 12634028), 10 mM HEPES (Thermo Fisher Scientific, cat. 15630080), 1X GlutaMAX supplement (Thermo Fisher Scientific, cat. 35050061), 0.1 mg/mL primocin (InvivoGen, San Diego, CA, cat. ant-pm-2), 10% defined fetal bovine serum, heat inactivated (HyClone Laboratories Inc., Logan, UT, cat. SH30070.03HI), 50% L-WRN conditioned media (ATCC, cat. CRL-3276), 1.25 mM N-Acetyl-L-cysteine (Sigma-Aldrich, cat. A9165), 10 mM nicotinamide (Sigma-Aldrich, cat. N0636), 1X B-27 supplement (Thermo Fisher Scientific, cat. 17504044), 1X N-2 supplement (Thermo Fisher Scientific, cat. 17502048), 50 ng/mL human EGF (Thermo Fisher Scientific, cat. PHG0311), and 10 microM Y-27632 dihydrochloride (Tocris Bioscience, cat. 1254). The K12877-001-R-J1-PDC line was cultured in 6I media, which includes all 6C/Colon 1B media plus 10 ng/mL human FGF-10 (PeproTech, cat. 100-26), 1 ng/mL human FGF-2 (PeproTech, cat. 100-18B), 1 µM prostaglandin E2 (Tocris Bioscience, cat. 2296), […] hydrocortisone (Sigma-Aldrich, cat. H4001), and […] bovine insulin (Sigma-Aldrich, cat. I6634). The K86415-001-R-J1-PDC line was cultured in 6D media, which includes all 6C/Colon 1B media components minus the L-WRN conditioned media. The 485176-168-R4-J1-PDC was cultured in PANC media, which includes all 6C/Colon 1B media plus 100 ng/mL human FGF-10 (PeproTech, cat. 100-26), 500 nM SB-431542 (Selleckchem, cat. S1067), and 10 nM gastrin (Tocris Bioscience, cat. 3006). […]
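Also: spheroids exposed to the agents for 7 days before readout.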
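For viability, T/C in this document: luminescence viability as percent of DMSO vehicle control wells.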

What is called viability, T/C is the ratio of treated to control. In general, IC50 refers to the midpoint of a concentration-inhibition curve. Turning to `CC(=O)OC12COC1CC(O)C1(C)C(=O)C(O)C3=C(C)C(OC(=O)C(O)C(NC(=O)OC(C)(C)C)c4ccccc4)CC(O)(C(OC(=O)c4ccccc4)C21)C3(C)C` (stereo unspecified), the viability, T/C reads like this: (compound 0.0316 µM) 101% [middle of 4 runs]; (compound 0.1 µM) 90.8% [middle of 4 runs]; (compound 0.316 µM) 32.6% [middle of 4 runs]; (compound 1 µM) 21.6% [middle of 4 runs]; (compound 3.16 µM) 27.5% [middle of 4 runs]; (compound 10 µM) 36% [middle of 4 runs]. For the setting “curve of compound”, the 50% inhibitory concentration (IC50) is 226 nM [middle of 4 runs].
As usually defined, the pIC50 is the IC50 on a negative log10 scale, so that one unit is a factor of ten. Take `CC1(O)CCCC1n1c(=O)c(C(F)F)cc2cnc(NC3CCN(S(C)(=O)=O)CC3)nc21` (stereo unspecified): the viability, T/C by setting is: (compound 0.0316 µM) 103% (2×) and 94% and 97.4%; (compound 0.1 µM) 104% [middle of 4 runs]; (compound 0.316 µM) 89.9% [middle of 4 runs]; (compound 3.16 µM) 68.3% [middle of 4 runs]. Further, for the setting “curve of compound”, the pIC50 is < 5.00 and 5.03 and 5.22.
On to `CCC(CC)c1cc(NC2CCC(N)C2)n2nccc2n1` (stereo unspecified), for which the viability, T/C is, setting by setting: (compound 0.0316 µM) 106% [middle of 4 runs]; (compound 0.1 µM) 94% and 100% and 104% (2×); (compound 0.316 µM) 101% [middle of 4 runs]; (compound 1 µM) 94.1% [middle of 4 runs]; (compound 3.16 µM) 74.8% [middle of 4 runs]; (compound 10 µM) 3.99% [middle of 4 runs]. The IC50 (curve of compound) was 4.62 µM [middle of 4 runs].
With `C[C@@H](NC(=O)c1ncnc(N)c1Cl)c1ncc(C(=O)Nc2cc(C(F)(F)F)c(Cl)cn2)s1`, the viability, T/C was 97.4% [middle of 4 runs] (compound 0.0316 µM); 102% [middle of 4 runs] (compound 0.1 µM); 95.7% [middle of 4 runs] (compound 1 µM); 93.9% [middle of 4 runs] (compound 3.16 µM); 75.5% [middle of 4 runs] (compound 10 µM). Further, the pIC50 (curve of compound) was less than 5.00.
`Cc1nc(N2CCC3(CC2)COC(C)C3N)c(CO)nc1Sc1ccnc(N)c1Cl` (stereo unspecified): the viability, T/C reads like this: (compound 0.0316 µM) 101% [middle of 4 runs]; (compound 0.1 µM) 107% [middle of 4 runs]; (compound 0.316 µM) 100% [middle of 4 runs]; (compound 1 µM) 88.8% [middle of 4 runs]; (compound 3.16 µM) 91.8% [middle of 4 runs]; (compound 10 µM) 80% [middle of 4 runs]. Further, where the note is “curve of compound”, the pIC50 was less than 5.00.
For `NC1c2ccccc2OC12CCN(c1cnc3c(N4CCCc5ncccc54)n[nH]c3n1)CC2` (stereo unspecified), the viability, T/C is 95.1% [middle of 4 runs] (compound 0.0316 µM); 90% [middle of 4 runs] (compound 0.1 µM); 85.3% [middle of 4 runs] (compound 0.316 µM); 76.1% [middle of 4 runs] (compound 1 µM); 68.5% [middle of 4 runs] (compound 3.16 µM); 49.4% [middle of 4 runs] (compound 10 µM). Moreover, the negative logarithm of the IC50 (pIC50) (curve of compound) is < 5.00 and 5.22 and 5.08.
With `C=CC(=O)Nc1cc(Nc2nccc(-c3cn(C)c4ccccc34)n2)c(OC)cc1N(C)CCN(C)C` + C#Cc1c(F)ccc2cc(O)cc(-c3ncc4c(N5CC6CCC(C5)N6)nc(OCC56CCCN5CC(F)C6)nc4c3F)c12, the pIC50 runs as follows: (curve of first compound, second compound 0.0316 µM) 6.28; (curve of first compound, second compound 0.1 µM) 6.33; (curve of first compound, second compound 0.316 µM) 6.80; (curve of first compound, second compound 1 µM) 6.96; (curve of first compound, second compound 3.16 µM) 7.31; (curve of first compound, second compound 10 µM) 8.26. In addition, the viability, T/C is 96.8% (second compound 0.0316 µM, first compound 0.00316 µM); 96.6% (second compound 0.0316 µM, first compound 0.01 µM); 97.7% (second compound 0.0316 µM, first compound 0.0316 µM); 89.7% (second compound 0.0316 µM, first compound 0.1 µM); 78.1% (second compound 0.0316 µM, first compound 0.316 µM); 15.8% (second compound 0.0316 µM, first compound 1 µM). Also, the viability, T/C reads like this: (second compound 0.1 µM, first compound 0.00316 µM) 93%; (second compound 0.1 µM, first compound 0.01 µM) 96.6%; (second compound 0.1 µM, first compound 0.0316 µM) 91.6%; (second compound 0.1 µM, first compound 0.1 µM) 84.8%; (second compound 0.1 µM, first compound 0.316 µM) 71.3%; (second compound 0.1 µM, first compound 1 µM) 12.4%. Further, the viability, T/C is, setting by setting: (second compound 0.316 µM, first compound 0.00316 µM) 95.9%; (second compound 0.316 µM, first compound 0.01 µM) 94.4%; (second compound 0.316 µM, first compound 0.0316 µM) 84.1%; (second compound 0.316 µM, first compound 0.1 µM) 69.8%; (second compound 0.316 µM, first compound 0.316 µM) 20.8%; (second compound 0.316 µM, first compound 1 µM) 14.4%. Moreover, the viability, T/C (second compound 1 µM, first compound 0.00316 µM) was 80.9%; the viability, T/C (second compound 1 µM, first compound 0.01 µM) was 78.3%; the viability, T/C (second compound 1 µM, first compound 0.0316 µM) is 73%; the viability, T/C (second compound 1 µM, first compound 0.1 µM) was 53.7%; the viability, T/C (second compound 1 µM, first compound 0.316 µM) was 19.9%; the viability, T/C (second compound 1 µM, first compound 1 µM) was 14.4%. Also, the viability, T/C was 63.5% (second compound 3.16 µM, first compound 0.00316 µM); 66.4% (second compound 3.16 µM, first compound 0.01 µM); 55.7% (second compound 3.16 µM, first compound 0.0316 µM); 38.7% (second compound 3.16 µM, first compound 0.1 µM); 16.2% (second compound 3.16 µM, first compound 0.316 µM); 13.8% (second compound 3.16 µM, first compound 1 µM). Besides, the viability, T/C reads like this: (second compound 10 µM, first compound 0.00316 µM) 57.3%; (second compound 10 µM, first compound 0.01 µM) 41.4%; (second compound 10 µM, first compound 0.0316 µM) 32.5%; (second compound 10 µM, first compound 0.1 µM) 22.5%; (second compound 10 µM, first compound 0.316 µM) 17.1%; (second compound 10 µM, first compound 1 µM) 13.4%.
